Question: Which melting point does the source give for O=CNc1ccc(Cl)cc1C(=O)c1ccccc1Cl here?
Answer: Its melting point is 106 to 107 °C.

Question: For CCCCN(CCCC)c1ccc2nc3c4ccccc4c(=Nc4ccncc4)cc-3oc2c1, which melting point is on record?
Answer: Its melting point is 188 to 189 °C.

Question: With Cc1ccc(C(=O)Nc2ccc(-n3nc(C(F)(F)F)cc3C(F)(F)F)cc2)s1 as the compound, how does the melting point read?
Answer: Its melting point is 200 to 202 °C.

Question: Which melting point does the source give for COc1cc2c(cc1O)CCC1C2CCC2(C)C(=O)CCC12 (stereo unspecified) here?
Answer: Its melting point is 167 to 170 °C.

Question: With Nc1c(Cl)cc(C(=O)NC2CCNCC2)c2c1CCO2 as the compound, how does the melting point read?
Answer: Its melting point is 190 °C.

Question: For CSc1ccc(C(=O)C(C)CC(=O)O)cc1 (stereo unspecified), which melting point is on record?
Answer: The melting point was 69 to 71 °C.

Question: Which melting point does the source give for O=C1NC(=O)C(Nc2ccc(Br)c3ccccc23)S1 (stereo unspecified) here?
Answer: The melting point was 199 to 200 °C.

Question: With CC(C)(CCCC(=O)O)c1ccc(O)cc1 as the compound, how does the melting point read?
Answer: Its melting point is 94 to 96 °C.

Question: Which melting point does the source give for CCOc1ccc(NN=C2CCC(C)n3c2ncc(C(=O)O)c3=O)cc1 (stereo unspecified) here?
Answer: The melting point was 218 to 219 °C.

Question: Which melting point does the source give for CCCN(CCC)S(=O)(=O)c1cc(C2=CCC(=O)O2)ccc1Cl here?
Answer: The melting point was 118 to 121 °C.

Question: Which melting point does the source give for NC(=O)C(c1ccccc1)c1ccccn1 (racemic) here?
Answer: The melting point was 134 °C.

Question: Which melting point does the source give for BrCCCCCCOc1ccc(OCc2ccccc2)cc1 here?
Answer: Its melting point is 72 to 73 °C.

Question: With O=[N+]([O-])c1cccc(Sc2ccc(-c3ccc(Br)cc3)s2)c1 as the compound, how does the melting point read?
Answer: The melting point was 120 to 122 °C.

Question: Which melting point does the source give for N#CCCOC(=O)C=Cc1ccccc1 here?
Answer: The melting point was 62 to 65 °C.

Question: With CC(=O)NC[C@H]1CN(c2ccc(C=C(Br)Br)c(F)c2)C(=O)O1 as the compound, how does the melting point read?
Answer: The melting point was 177 to 179 °C.

Question: Which melting point does the source give for Clc1cccc(/C=C/[C@H]2CCCN2c2ncnc3[nH]cnc23)c1 here?
Answer: The melting point was 194 to 196 °C.

Question: Which melting point does the source give for Cc1csc(Cc2ccc(NC(=O)/C=C/c3cnn(C)c3-c3ccc(F)cc3)cc2)n1 here?
Answer: Its melting point is 217 to 218 °C.

Question: Which melting point does the source give for O=[N+]([O-])c1ccc(Cn2c(-c3ccc4c(c3)OCO4)nc3ccccc32)cc1 here?
Answer: Its melting point is 172 to 174 °C.

Question: With COC(=O)C(C)Oc1ccc(Oc2ccc(C(F)(F)F)cc2)cc1 (stereo unspecified) as the compound, how does the melting point read?
Answer: The melting point was 142 °C.

Question: Which melting point does the source give for COc1cc(CCl)c(OCCC(C)CCCC(C)C)cc1CCl (stereo unspecified) here?
Answer: Its melting point is 65 °C.

Question: Which melting point does the source give for CC(C)Nc1cccnc1N1CCN(C(=O)c2ccc(C(=O)N3CCOCC3)cc2)CC1 here?
Answer: Its melting point is 139 °C.

Question: With Cc1cc2c(cc1[N+](=O)[O-])OCO2 as the compound, how does the melting point read?
Answer: Its melting point is 83 to 84 °C.

Question: Which melting point does the source give for Oc1ccc(-c2nc3ccc(O)cc3o2)c(O)c1 here?
Answer: The melting point was 293 to 296 °C.

Question: For CCON=C(C)c1cccc(S(N)(=O)=O)c1, which melting point is on record?
Answer: Its melting point is 157 to 158 °C.

Question: With O=C(CCCCCCCNC(=O)c1cn2c3c(cccc13)CCC2)NO as the compound, how does the melting point read?
Answer: The melting point was 174 to 176 °C.

Question: With CCCc1nc2cnc3cc(OCC(=O)N4CCOCC4)ccc3c2s1 as the compound, how does the melting point read?
Answer: Its melting point is 133 to 136 °C.

Question: For Cc1cc2c(N3CCC(CCO)CC3)ccc(C#N)c2o1, which melting point is on record?
Answer: Its melting point is 106 to 107 °C.

Question: Which melting point does the source give for COC(=O)c1c(C(F)(F)F)nc(C(F)(F)F)c(C(=O)OC)c1[Si](C)(C)C here?
Answer: Its melting point is 29 to 31 °C.

Question: For COC(=O)C1=C(N)OC(C)=C(C(C)=O)C1c1cccc([N+](=O)[O-])c1 (stereo unspecified), which melting point is on record?
Answer: Its melting point is 160 to 163 °C.

Question: With O=C(Nc1ccc(Oc2ncnc3cc4c(cc23)OCCOCCOCCO4)c(F)c1)c1c[nH]cc(-c2ccc(F)cc2)c1=O as the compound, how does the melting point read?
Answer: The melting point was 188 to 190 °C.

Question: With NNc1ccc(C(F)(F)F)c(Cl)c1Cl as the compound, how does the melting point read?
Answer: The melting point was 79 to 80 °C.

Question: Which melting point does the source give for Cc1csc2ccc3[nH]c4c(c3c12)CNCC4 here?
Answer: The melting point was 234 °C.

Question: Which melting point does the source give for COC(=O)[C@H](Cc1ccc(CC(=O)O)c(C2SCCS2)c1)NC(C)=O here?
Answer: Its melting point is 113 to 119 °C.

Question: With CC(=O)CN1CCc2c(c(=O)oc3cc(C)c([N+](=O)[O-])cc23)C1 as the compound, how does the melting point read?
Answer: Its melting point is 166 to 168 °C.

Question: With COc1cc(COc2cc(Cn3cncn3)n(-c3ccccc3)n2)ccc1OCc1nc(-c2ccco2)oc1C as the compound, how does the melting point read?
Answer: The melting point was 95 to 96 °C.

Question: Which melting point does the source give for O=C1c2cccc3c([N+](=O)[O-])c(O)cc(c23)C(=O)N1O here?
Answer: Its melting point is 267 to 270 °C.

Question: For CC(C)C(SC(=O)c1ccccc1)C(=O)NCC(=O)O (stereo unspecified), which melting point is on record?
Answer: The melting point was 136 to 137 °C.

Question: For CC1CC(=O)NN=C1c1ccc2[nH]c(-c3ccncc3)cc2c1 (stereo unspecified), which melting point is on record?
Answer: Its melting point is 301 to 303 °C.

Question: Which melting point does the source give for CCc1nc2c(cnn2CC)c(NC2CCOCC2)c1CNC(=O)c1cccc(C(=O)NCc2ccc(Cl)c(-c3cccc(CN4CCCN(C)CC4)c3)c2)c1 here?
Answer: The melting point was 105 to 107 °C.

Question: With O=[N+]([O-])c1ccc(-c2ccsc2-c2ccc(F)cc2)cc1 as the compound, how does the melting point read?
Answer: Its melting point is 108 to 110 °C.

Question: For N#Cc1cc(C(=O)O)cnc1Br, which melting point is on record?
Answer: Its melting point is 170 to 172 °C.

Question: With CCOC(=O)Cc1cccc(Oc2ccccc2)c1NC(C)=O as the compound, how does the melting point read?
Answer: The melting point was 106 to 107 °C.

Question: For COc1ccc2c(c1C)OC(C)(C)CC2=O, which melting point is on record?
Answer: The melting point was 105 to 107 °C.

Question: Which melting point does the source give for CN(CC1CC(c2ccc(F)cc2)=NO1)C1CCC(c2ccc3[nH]c(=O)oc3c2)CC1 (stereo unspecified) here?
Answer: The melting point was 109 to 114 °C.

Question: With CC12CCC3C(CCC4CC(O[Si](c5ccccc5)(c5ccccc5)C(C)(C)C)CCC43C)C1CCC2C=C(Br)Br (stereo unspecified) as the compound, how does the melting point read?
Answer: Its melting point is 69 to 71 °C.

Question: For O=C(O)Cc1c(C(=O)c2ccc(-c3cccs3)cc2)[nH]c2cc(Cl)ccc12, which melting point is on record?
Answer: The melting point was 246 to 249 °C.

Question: Which melting point does the source give for COc1ncnc2cc(Br)sc12 here?
Answer: The melting point was 111 to 113 °C.

Question: For O=C(Nc1cccc(OCc2cccnc2)c1)N1CCOCC1, which melting point is on record?
Answer: Its melting point is 58 to 62 °C.

Question: For COc1cc2c(cc1C(O)c1ccccc1)C=C2C(=O)O (stereo unspecified), which melting point is on record?
Answer: The melting point was 143 to 146 °C.

Question: With CN(C)S(=O)(=O)NC(=O)N1CC(c2ccccc2)C(c2ccc(Cl)cc2)=N1 (stereo unspecified) as the compound, how does the melting point read?
Answer: The melting point was 210 to 212 °C.

Question: Which melting point does the source give for CC(C)n1nc(-c2c(-c3ccccc3)nn3ccc(OCC(=O)NC4CC4)cc23)ccc1=O here?
Answer: The melting point was 199 to 200 °C.
